Publication PMC4316792, “The dehydrogenase region of the NADPH oxidase component Nox2 acts as a protein disulfide isomerase (PDI) resembling PDIA3 with a role in the binding of the activator protein p67^phox” (Frontiers in Chemistry, 2015)
Bridges are numbered along the chain shown (N, C = ends). The star is where a group is joined. Biotin = O=C1N[C@H]2[C@H](CS[C@H]2CCCCC(=O)*)N1

T1: p67^phox(1–212) (UniProt P19878 1-212)
T1 construct: contains four cysteines (40, 45, 121, 165); source: E. coli, purified (Nickel Sepharose); not shown: 6His, N-terminal, kept
T1 sequence (looked up): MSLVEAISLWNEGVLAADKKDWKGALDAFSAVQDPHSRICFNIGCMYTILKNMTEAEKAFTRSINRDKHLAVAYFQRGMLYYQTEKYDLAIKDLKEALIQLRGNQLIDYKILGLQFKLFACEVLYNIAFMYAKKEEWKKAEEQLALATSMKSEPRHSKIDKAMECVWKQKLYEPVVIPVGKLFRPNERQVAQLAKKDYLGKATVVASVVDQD


Legend:
[1] = test system: recombinant 6His-p67^phox; assay: Peptide–protein binding assay / peptide walking, p67phox; conditions: statement of Results section
[2] = test system: recombinant 6His-p67^phox; conditions: manuscript in preparation, cited from earlier work; for binding of p67phox to overlapping 15-mer peptides (peptide walking): ref Dahan and Pick; for binding of p67phox after introduction of intramolecular disulfide bond between C369 and C371 / binding of p67phox after reduction of the disulfide bond and alkylation of the reduced thiols: ref Fradin et al., [2011], [2012], Pick, Fradin and Pick
Text: The cytosolic segment of Nox2 is also known as the dehydrogenase region (DHR) by virtue of the fact that it contains the NADPH- and FAD-binding sites and is homologous to the prokaryotic protein ferredoxin-NADP^+ reductase. The DHR comprises binding sites for p47^phox and Rac but, so far, there is no solid evidence for the identity of the binding site(s) for p67^phox. We approached this question by applying the “peptide walking” methodology (Joseph and Pick, [1995]; Dahan et al., [2012]; Dahan and Pick, [2012]). […] An important observation was that enhanced binding of p67^phox was evident only when the disulfide bond was established between two non-adjacent cysteines and between cysteines present in the same peptide; when the CGC tria ...

[3] = test system: p67^phox(1–526); assay: Peptide–protein binding assay, p67phox(1–526); conditions: native (non-disulfide) peptide
[4] = test system: p67^phox(1–212); assay: Peptide–protein binding assay, p67phox(1–212); conditions: native (non-disulfide) peptide
[5] = PDI reductase activity, DE-GSSG reduction; type: biochemical; conditions: for PDI activity of isolated Nox2 peptides: DE-GSSG reduction over a wide concentration range
[6] = test system: oxidized insulin; assay: Insulin reduction (turbidimetric) assay; type: biochemical; conditions: recombinant PDI
[7] = target: T1, p67^phox(1–212); assay: ELISA; peptide—protein binding assay as a1, with peptide 24 and the modified peptides, all in the reduced form, subjected to oxidation by 1 mM H2O2; conditions: both partners purified
[8] = test system: p67^phox(1–526); assay: Protein–protein binding assay, p67phox(1–526); conditions: homodimers, 0.5 μM, p67phox coated at 0.5 μM; one characteristic experiment (Figure 5A)
[9] = test system: p67^phox(1–212); assay: Protein–protein binding assay, p67phox(1–212); conditions: homodimers, 0.5 μM, p67phox coated at 0.5 μM; one characteristic experiment (Figure 5B)

Molecule	increase in binding of p67phox on introduction of intramolecular disulfide bond linking C369 and C371 [1]	binding of p67phox(1–526) [3]	binding of p67phox(1–212) [4]	PDI activity of isolated Nox2 peptides [5]	binding of p67phox to overlapping 15-mer peptides (peptide walking) [2]	binding of p67phox after introduction of intramolecular disulfide bond between C369 and C371 [2]	binding of p67phox after reduction of the disulfide bond and alkylation of the reduced thiols [2]	further results
PDIA1: Recombinant PDI A1 (human), made in E. coli [reference compound]	–	–	–	–	–	–	–	concentration down to which activity could be measured in insulin reduction assay [6]: 10 nM; Vmax, PDI reductase activity (Figure 7C,D) ([5]; 10 nM, DE-GSSG 0.8 μM, DTT 12.5 μM, pH 7.0, 24°C, mean ± SEM of 4 (PDIA1), 3 (PDIA3) experiments): 37,303 ± 1279; reductase activity relative to NusA-Nox2(357–570) ([5]; extrapolation of Vmax at 10 nM PDI to Vmax with 1 μM NusA-Nox2(357–570)): about 75 times
Biotin-SGSGIVGDWTEGLFNACGPC-NH2 (disulfide 17-20; SMILES CC[C@H](C)[C@H](NC(=O)CNC(=O)[C@H](CO)NC(=O)CNC(=O)[C@H](CO)NC(=O)CCCC[C@@H]1SC[C@@H]2NC(=O)N[C@@H]21)C(=O)N[C@H](C(=O)NCC(=O)N[C@@H](CC(=O)O)C(=O)N[C@@H](Cc1c[nH]c2ccccc12)C(=O)N[C@H](C(=O)N[C@@H](CCC(=O)O)C(=O)NCC(=O)N[C@@H](CC(C)C)C(=O)N[C@@H](Cc1ccccc1)C(=O)N[C@@H](CC(N)=O)C(=O)N[C@@H](C)C(=O)N[C@H]1CSSC[C@@H](C(N)=O)NC(=O)[C@@H]2CCCN2C(=O)CNC1=O)[C@@H](C)O)C(C)C, spacer between the N-terminal biotin and the peptide, printed as Ser-Gly-Ser-Gly; also called 24N CGPC S-S (disulfide form); source: synthetic peptide (Mimotopes or Bachem), synthesized in the disulfide form; also made from the reduced peptide by oxidation with 1 mM H2O2; not shown: biotin, N-terminal, kept)	–	–	–	–	–	–	–	binding result [7]: binds
NusA-Nox2(328–570): fusion protein of NusA and Nox2 residues 328–570 (protein, left off: NusA (E. coli), N-terminal, kept | His tag (from the purification on Nickel Sepharose), end not stated, state not stated) KCPKVSKLEWHPFTLTSAPEEDFFSIHIRIVGDWTEGLFNACGCDKQEFQDAWKLPKIAVDGPFGTASEDVFSYEVVMLVGAGIGVTPFASILKSVWYKYCNNATNLKLKKIYFYWLCRDTHAFEWFADLLQLLESQMQERNNAGFLSYNIYLTGWDESQANHFAVHHDEEKDVITGLKQKTLYGRPNWDNEFKTIASQHPNTRIGVFLCGPEALAETLSKQSISNSESGPRGVHFIFNKENF	–	–	–	–	–	–	–	binding of NusA-Nox2 to p67phox(1–526) [8]: significant binding; binding of NusA-Nox2 to p67phox(1–212) [9]: significant binding

The next lines start with results.

increase in binding of p67phox on introduction of intramolecular disulfide bond linking C369 and C371 [1]	binding of p67phox(1–526) [3]	binding of p67phox(1–212) [4]	PDI activity of isolated Nox2 peptides [5]	Molecule	binding of p67phox to overlapping 15-mer peptides (peptide walking) [2]	binding of p67phox after introduction of intramolecular disulfide bond between C369 and C371 [2]	binding of p67phox after reduction of the disulfide bond and alkylation of the reduced thiols [2]	further results
marked increase	low affinity	low affinity	No PDI activity	IVGDWTEGLFNACGC [peptide 24, 15-mer Nox2 peptide, residues 357–371, CGC triad at C-terminus]	binds preferentially	marked increase	totally abolished	–
marked increase	low affinity	low affinity	No PDI activity	peptide 28: 15-mer Nox2 peptide, residues 369–383, CGC triad at N-terminus (CGCDKQEFQDAWKLP; UniProt P04839 369-383, looked up, fragment)	binds preferentially	marked increase	totally abolished	–
